The record followed here is US7579334B2, “Compounds with anti-inflammatory activity” (GlaxoSmithKline Istrazivacki Centar Zagreb, priority 2003, dated 2009).

SMILES strings stand for the structures.

For one data set, the system named is Male Balb/C mice. Briefly: Model of lung eosinophilia in mice. In kind it is in vivo. Conditions: OVA-sensitised and challenged mice, daily i.n. or i.p.; t-test, p<0.05. How it is done: Model of Lung Eosinophilia in Mice Male Balb/C mice with a body weight of 20-25 g were randomly divided into groups, and sensitised by an i.p. injection of ovalbumin (OVA, Sigma) on day zero and day fourteen. On the twentieth day, the mice were subjected to a challenge test by i.n. (intranasal) application of OVA (positive control or test groups) or PBS (negative control). 48 hours after i.n. application of OVA, the animals were anaesthetized and the lungs were rinsed with 1 mL of PBS. The cells were separated on Cytospin 3 cytocentrifuge (Shandon). The cells were stained in Diff-Quick (Dade) and the percentage of eosinophils was determined by differential counting of at least 100 cells. Fluticasone (GlaxoWellcome) and beclomethasone ([…].) were used as standard substances, with positive and negative control. The compounds were administered daily i.n. or i.p. in different doses 2 days before the challenge test and up to the completion of the test.

The target in data set [1] is T1, alpha isoform of human glucocorticoid receptor (Homo sapiens, UniProt P04150).
T1 construct: expressed in transfected cells; host or cells: COS-1 cells, transient transfection with pcDNA3.1 Hygro(+) carrying the GR alpha cDNA
T1 sequence (P04150 1-777): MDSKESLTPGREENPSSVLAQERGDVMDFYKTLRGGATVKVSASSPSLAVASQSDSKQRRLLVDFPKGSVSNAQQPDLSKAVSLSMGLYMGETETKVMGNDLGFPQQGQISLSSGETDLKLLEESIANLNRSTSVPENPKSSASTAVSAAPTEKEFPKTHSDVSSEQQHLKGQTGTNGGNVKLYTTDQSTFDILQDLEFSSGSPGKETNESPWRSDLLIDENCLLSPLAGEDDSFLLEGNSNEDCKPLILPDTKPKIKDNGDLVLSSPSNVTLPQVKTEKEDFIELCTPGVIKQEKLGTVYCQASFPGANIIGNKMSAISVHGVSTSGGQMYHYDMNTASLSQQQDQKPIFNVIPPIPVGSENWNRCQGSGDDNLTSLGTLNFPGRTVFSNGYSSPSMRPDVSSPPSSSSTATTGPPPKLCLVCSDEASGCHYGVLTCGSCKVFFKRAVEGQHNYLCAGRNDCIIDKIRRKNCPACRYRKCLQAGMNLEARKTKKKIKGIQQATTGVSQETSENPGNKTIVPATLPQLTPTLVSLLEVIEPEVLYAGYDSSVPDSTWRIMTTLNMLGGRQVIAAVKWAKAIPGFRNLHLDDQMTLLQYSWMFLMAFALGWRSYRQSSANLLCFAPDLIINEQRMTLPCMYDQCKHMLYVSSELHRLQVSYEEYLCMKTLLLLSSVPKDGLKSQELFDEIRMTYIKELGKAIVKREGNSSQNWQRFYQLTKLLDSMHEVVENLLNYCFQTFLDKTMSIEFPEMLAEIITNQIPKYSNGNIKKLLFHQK
Put plainly: Assay of binding to human glucocorticoid receptor ([3H]dexamethasone displacement in transfected COS-1 cells). Conditions: 24 nM [3H]dexamethazone, COS-1 cells transfected with human GR alpha, 90 minutes at 37° C. On the procedure:
Assay of Binding to Human Glucocorticoid Receptor The gene for the alpha isoform of human glucocorticoid receptor was cloned by reverse polymerase chain reaction. The total RN A was isolated from human peripheral blood lymphocytes according to the instructions of the manufacturer (Qiagen), transcripted into cDNA with AMV reverse transcriptase (Roche) and the gene was multiplied by specific primers 1) [NT] ID NO:1] and 2) [NT] NO:1]. […] The medium was removed and 1 μg of DNA, 7 μl of PLUS reagent and 2 μl of Lipofectamin (Life Technologies) in 500 μl of DMEM were added per well. The cells were incubated at 37° C. in an atmosphere with 5% CO2 and after 5 hours the same volume of 20% FBS/DMEM was added. After 24 hours, the medium was completely changed. 48 hours after transfection, the test compounds in different concentrations and 24 nM [^3H]dexamethazone (Pharmacia) in DMEM medium were added. The cells were incubated for 90 minutes at 37° C. in an atmosphere with 5% CO2, washed three times with PBS buffer (Sigma) cooled to 4° C. (pH=7.4), and then lysed in Tris buffer (pH=8.0) (Sigma) with 0.2% of SDS (Sigma). After the addition of UltimaGold XR (Packard) scintillation liquid, the residual radioactivity was read in a Tricarb (Packard) β-scintillation counter.

The next data set has as its system Male Wistar rats. Put plainly: Cold stress model. The class given is in vivo. The settings on record: standard 1 mg/kg once daily over three days, cold stress at 4° C. for 1 hour; P<0.05, T-test. How it is done:
Male Wistar rats with a body weight of 200-250 g (our own breeding) were randomly divided into groups. The carrier (lactose) in the volume of 0.5 mL/100 g s.c. was applied to the negative and positive control group. Test substances and the standard were applied once daily over three days in the dose of 2 mg/kg in the volume of 0.5 mL/100 g of body weight. The standard was applied in the dose of 1 mg/kg, in the volume of 0.5 mL/100 g of body weight.
On day three, 2 hours after the last treatment, all animals, except for the negative control group, were subjected to cold stress at 4° C. for 1 hour. After the stress, the animals were anaesthetized with thiopental (Pliva d.d.) and blood from all animals was drawn on K2 EDTA into test tubes. Plasma samples were frozen at −70° C. Corticosterone levels were determined by fluorimetric method according to Silber. Thymuses were removed from animals and weighed, and their weights were compared with the negative and positive control.

As to `CC[C@H]1OC(=O)[C@H](C)[C@@H](O)[C@H](C)[C@@H](O)[C@](C)(O)C[C@@H](C)CN(CCCNC(=O)[C@H]2[C@H](C)CC3C4CCC5=CC(=O)C=C[C@]5(C)[C@@]4(F)[C@@H](O)C[C@@]32C)[C@H](C)[C@@H](O)[C@]1(C)O` (stereo partly drawn) [Compound 2], the “number of eosinophils in the lung rinse with respect to positive control” value with Male Balb/C mice is on record as “statistically significantly reduced”. Also, the “affinity for glucocorticoid receptor (displacement of radioactive dexamethasone)” value in data set [1] is “have the affinity for glucocorticoid receptor”.
As to `CCCC1O[C@@H]2C[C@H]3[C@@H]4CCC5=CC(=O)C=C[C@]5(C)[C@H]4[C@@H](O)C[C@]3(C)[C@]2(C(=O)CO)O1` (stereo partly drawn) [budesonide], in the data set on Male Wistar rats, the corticosterone plasma levels result was “statistically significantly reduced” and the “weight of the thymus” value is recorded as “reduced the weight of the thymus”.
In the case of `C[C@@H]1C[C@H]2[C@@H]3C[C@H](F)C4=CC(=O)C=C[C@]4(C)[C@@]3(F)[C@@H](O)C[C@]2(C)[C@@]1(O)C(=O)SCF` [fluticasone], in the data set on Male Wistar rats, the corticosterone plasma levels entry was “statistically significantly reduced” and the “weight of the thymus” value is listed as “reduced the weight of the thymus”.
